Tested on: formalin-induced behavioral response
Assay: formalin-induced behavioral response model (flinching/shaking, licking/biting; phase I and phase II)
[1] = dose 3 mg/kg subcutaneously two hours prior to formalin administration

Structure (SMILES)	% Inhibition of Phase II [1] [%]	also measured
CC(C)Oc1ccc2c(c1)CCc1c-2c2c(c3c4ccccc4n(CCO)c13)CNC2=O [IX]	37 ± 3	
CC(C)Oc1ccc2c(c1)CCc1c-2c2c(c3c1[nH]c1ccc(F)cc13)CNC2=O [VIII]		% Inhibition of Phase II (dose 1 mg/kg subcutaneously two hours prior to formalin administration): 29 ± 4%
C[C@]1(O)C[C@H]2O[C@]1(C)n1c3ccccc3c3c4c(c5c6ccccc6n2c5c31)C(=O)NC4 [XIII]	29 ± 5	
O=C1NCc2c1c1c3c4c2c2ccccc2n4C2CC[C@H](O2)C3c2ccccc2-1 (stereo partly drawn) [XIV]	34 ± 3	
COc1ccc2c(c1)Cc1c-2c2c(c3c4ccccc4n(CCO)c13)CNC2=O [XVI]	22 ± 6	
CCOCc1ccc2c(c1)c1c3c(c4c(c1n2CCCO)Cc1ccccc1-4)C(=O)NC3 [XV]		% Inhibition of Phase II (dose 10 mg/kg subcutaneously two hours prior to formalin administration): 19 ± 3%

Source: US7018999B2, “Methods for the treatment and prevention of pain” (Cephalon, Inc., priority 2001, dated 2006)
